Source: patent US10028960B2, “Pyrimidine compounds as JAK kinase inhibitors” (THERAVANCE BIOPHARMA R&D IP, LLC, priority 2016, dated 2018)
Like-named read-outs stand apart in the source and are kept apart here.

Legend:
JAK1 = JAK1 (Homo sapiens (Human), UniProt P23458); assay: LanthaScreen JAK biochemical assay, JAK1
Description: (§1) A panel of four LanthaScreen JAK biochemical assays (JAK1, 2, 3 and Tyk2) were carried in a common kinase reaction buffer (50 mM HEPES, pH 7.5, 0.01% Brij-35, 10 mM MgCl2, and 1 mM EGTA). Recombinant GST-tagged JAK enzymes and a GFP-tagged STAT1 peptide substrate were obtained from Life Technologies.

JAK2 = JAK2 (Homo sapiens (Human), UniProt O60674); assay: LanthaScreen JAK biochemical assay, JAK2; conditions: for Ki: read-out: JAK 2 (pKi) (converted)
Sequence of JAK2 (O60674 whole entry): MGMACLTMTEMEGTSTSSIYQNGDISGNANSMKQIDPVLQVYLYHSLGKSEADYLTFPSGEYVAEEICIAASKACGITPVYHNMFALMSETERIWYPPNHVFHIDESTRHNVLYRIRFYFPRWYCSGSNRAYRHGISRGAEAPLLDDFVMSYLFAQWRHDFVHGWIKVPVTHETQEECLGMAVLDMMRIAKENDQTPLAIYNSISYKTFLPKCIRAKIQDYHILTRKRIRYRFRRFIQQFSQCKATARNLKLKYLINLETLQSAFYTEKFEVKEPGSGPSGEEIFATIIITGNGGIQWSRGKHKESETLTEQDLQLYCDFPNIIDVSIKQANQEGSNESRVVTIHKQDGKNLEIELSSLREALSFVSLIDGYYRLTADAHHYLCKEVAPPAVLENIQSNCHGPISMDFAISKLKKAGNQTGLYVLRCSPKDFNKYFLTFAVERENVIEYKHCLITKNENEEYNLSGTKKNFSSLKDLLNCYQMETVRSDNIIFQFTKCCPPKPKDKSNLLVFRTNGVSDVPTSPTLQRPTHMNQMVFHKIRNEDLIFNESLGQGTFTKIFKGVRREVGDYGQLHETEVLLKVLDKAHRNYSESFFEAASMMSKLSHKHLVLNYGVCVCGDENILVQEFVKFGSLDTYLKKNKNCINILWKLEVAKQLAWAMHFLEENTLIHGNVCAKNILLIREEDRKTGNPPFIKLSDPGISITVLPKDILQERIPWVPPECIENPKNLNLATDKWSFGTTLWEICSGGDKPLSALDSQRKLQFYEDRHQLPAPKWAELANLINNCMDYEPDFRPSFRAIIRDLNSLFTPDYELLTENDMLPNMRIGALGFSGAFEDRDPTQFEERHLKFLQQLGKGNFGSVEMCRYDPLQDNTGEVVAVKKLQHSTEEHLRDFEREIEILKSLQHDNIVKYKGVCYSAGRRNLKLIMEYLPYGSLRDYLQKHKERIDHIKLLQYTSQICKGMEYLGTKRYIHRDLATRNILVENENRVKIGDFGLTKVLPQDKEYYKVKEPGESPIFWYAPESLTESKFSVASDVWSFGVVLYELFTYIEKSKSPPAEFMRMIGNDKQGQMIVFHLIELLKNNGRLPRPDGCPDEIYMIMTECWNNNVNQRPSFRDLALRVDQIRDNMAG
Description: as §1

JAK3 = JAK3 (Homo sapiens (Human), UniProt P52333); assay: LanthaScreen JAK biochemical assay, JAK3; conditions: for Ki: read-out: JAK 3 (pKi) (converted)
Sequence of JAK3 (P52333 whole entry): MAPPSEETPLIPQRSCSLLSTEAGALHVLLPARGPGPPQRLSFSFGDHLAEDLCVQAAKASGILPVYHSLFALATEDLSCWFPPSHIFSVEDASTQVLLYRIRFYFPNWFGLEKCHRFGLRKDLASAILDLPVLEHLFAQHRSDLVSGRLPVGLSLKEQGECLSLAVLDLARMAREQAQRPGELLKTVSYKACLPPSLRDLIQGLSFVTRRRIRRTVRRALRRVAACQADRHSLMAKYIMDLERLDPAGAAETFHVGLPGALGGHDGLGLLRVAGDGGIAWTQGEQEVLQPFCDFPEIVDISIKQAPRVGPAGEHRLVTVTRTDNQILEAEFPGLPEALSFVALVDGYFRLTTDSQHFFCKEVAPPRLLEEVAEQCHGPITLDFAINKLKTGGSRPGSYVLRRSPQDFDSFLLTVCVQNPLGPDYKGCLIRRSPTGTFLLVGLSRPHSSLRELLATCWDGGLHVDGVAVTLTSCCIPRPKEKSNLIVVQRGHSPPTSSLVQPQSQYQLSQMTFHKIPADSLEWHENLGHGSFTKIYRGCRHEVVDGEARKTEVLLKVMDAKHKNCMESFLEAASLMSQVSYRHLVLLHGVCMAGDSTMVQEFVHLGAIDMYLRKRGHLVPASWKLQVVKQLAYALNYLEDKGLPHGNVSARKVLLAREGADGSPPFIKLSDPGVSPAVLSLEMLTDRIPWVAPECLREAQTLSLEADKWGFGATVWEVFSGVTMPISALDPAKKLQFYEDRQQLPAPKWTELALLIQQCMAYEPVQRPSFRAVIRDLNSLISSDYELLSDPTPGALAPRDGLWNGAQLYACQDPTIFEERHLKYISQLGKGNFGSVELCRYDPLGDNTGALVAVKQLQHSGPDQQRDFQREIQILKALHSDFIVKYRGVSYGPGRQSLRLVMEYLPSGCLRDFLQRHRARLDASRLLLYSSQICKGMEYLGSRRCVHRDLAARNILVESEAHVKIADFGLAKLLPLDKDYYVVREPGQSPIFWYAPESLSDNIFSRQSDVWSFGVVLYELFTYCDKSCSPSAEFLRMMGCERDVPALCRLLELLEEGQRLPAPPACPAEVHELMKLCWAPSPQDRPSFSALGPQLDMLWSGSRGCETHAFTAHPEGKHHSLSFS
Description: as §1

Tyk2 = Tyk2 (Homo sapiens (Human), UniProt P29597); assay: LanthaScreen JAK biochemical assay, Tyk2; conditions: for Ki: read-out: Tyk 2 (pKi) (converted)
Sequence of Tyk2 (P29597 whole entry): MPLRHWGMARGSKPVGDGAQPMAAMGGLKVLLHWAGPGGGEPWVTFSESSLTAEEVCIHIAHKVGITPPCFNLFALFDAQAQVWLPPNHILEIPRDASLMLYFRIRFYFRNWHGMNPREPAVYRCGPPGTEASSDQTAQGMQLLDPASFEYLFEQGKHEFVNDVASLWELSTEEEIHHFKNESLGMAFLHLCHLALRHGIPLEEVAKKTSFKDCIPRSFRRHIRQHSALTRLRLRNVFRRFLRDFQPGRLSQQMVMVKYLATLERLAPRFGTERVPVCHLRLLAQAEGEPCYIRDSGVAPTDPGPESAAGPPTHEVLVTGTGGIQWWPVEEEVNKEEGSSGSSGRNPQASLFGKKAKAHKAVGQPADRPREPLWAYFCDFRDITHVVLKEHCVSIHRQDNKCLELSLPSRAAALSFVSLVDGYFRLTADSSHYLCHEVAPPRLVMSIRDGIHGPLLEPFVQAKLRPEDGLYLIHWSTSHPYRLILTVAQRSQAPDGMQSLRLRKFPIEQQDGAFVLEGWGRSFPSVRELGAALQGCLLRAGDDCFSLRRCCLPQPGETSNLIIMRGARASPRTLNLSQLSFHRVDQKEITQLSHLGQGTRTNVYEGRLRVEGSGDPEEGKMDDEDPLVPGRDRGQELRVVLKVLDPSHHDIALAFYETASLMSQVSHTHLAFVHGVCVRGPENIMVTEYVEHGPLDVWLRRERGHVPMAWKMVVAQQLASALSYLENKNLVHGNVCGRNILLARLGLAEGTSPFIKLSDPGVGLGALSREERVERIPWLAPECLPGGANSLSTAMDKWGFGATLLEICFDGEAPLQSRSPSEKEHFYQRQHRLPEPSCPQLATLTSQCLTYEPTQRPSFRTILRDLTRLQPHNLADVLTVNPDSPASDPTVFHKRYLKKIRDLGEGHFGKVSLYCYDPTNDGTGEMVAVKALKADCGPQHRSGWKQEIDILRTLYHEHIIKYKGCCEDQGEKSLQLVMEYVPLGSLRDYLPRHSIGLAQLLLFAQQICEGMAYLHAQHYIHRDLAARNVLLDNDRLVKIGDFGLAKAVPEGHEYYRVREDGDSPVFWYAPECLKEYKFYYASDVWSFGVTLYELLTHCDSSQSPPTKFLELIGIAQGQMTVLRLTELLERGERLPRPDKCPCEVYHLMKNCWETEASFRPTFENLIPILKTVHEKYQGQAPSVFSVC
Description: as §1

[1] = tested on: IL-13 induced STAT6 phosphorylation in HT-29 human colorectal adenocarcinoma cells; assay: Cellular JAK potency assay: inhibition of IL-13 induced STAT6 phosphorylation; format: cell-based; conditions: IL-13 induced STAT6 phosphorylation, HT-29 cells; for IC50: Homo sapiens, read-out: HT-29 (pIC50) (converted)
Description: The potency of test compounds for inhibition of the JAK-dependent cytokine interleuken-13 (IL-13) was assessed by measuring IL-13 (IL-13, R&D Systems) induced STAT6 phosphorylation in HT-29 human colorectal adenocarcinoma cells (ATCC).
The anti-STAT6 antibody (Cell Signaling Technologies) was conjugated to AlphaScreen acceptor beads (Perkin Elmer), while the anti-pSTAT6 (pTyr641) antibody (Cell Signaling Technologies) was biotinylated using EZ-Link Sulfo-NHS-Biotin (Thermo Scientific).
HT-29 cells were grown at 37° C. in a 5% CO2 humidified incubator in McCoy's 5a Modified medium (ATCC) supplemented with 10% FBS (Hyclone), 100 U/mL penicillin, 100 μg/mL streptomycin (Life Technologies), and 2 mM GlutaMAX (Life Technologies). On day 1 of the assay, cells were seeded at a 7,500 cells/well density in white poly-D-lysine-coated 384-well plates (Corning) with 25 μL medium, and were allowed to adhere overnight in the incubator. On day 2 of the assay, the medium was removed and replaced with 12 μL of assay buffer (Hank's Balanced Salt Solution/HBSS, 25 mM HEPES, and 1 mg/ml bovine serum albumin/BSA) containing dose-responses of test compounds. Compounds were serially diluted in DMSO and then diluted another 1000-fold in media to bring the final DMSO concentration to 0.1%. Cells were incubated with test compounds at 37° C. for 1 h, and followed by the addition of 12 μL of pre-warmed IL-13 (12 ng/ml in assay buffer) for stimulation. After incubating at 37° C. for 30 min, the assay buffer (containing compound and IL-13) was removed, and 10 μL of cell lysis buffer (25 mM HEPES, 0.1% SDS, 1% NP-40, 5 mM MgCl2, 1.3 mM EDTA, 1 mM EGTA, and supplement with Complete Ultra mini protease inhibitors and PhosSTOP from Roche Diagnostics). The plates were shaken at ambient temperature for 30 min before the addition of detection reagents. A mixture of biotin-anti-pSTAT6 and anti-STAT6 conjugated acceptor beads was added first and incubated at ambient temperature for 2 h, followed by the addition of streptavidin conjugated donor beads (Perkin Elmer). After a minimum of 2 h incubation, the assay plates were read on the EnVision plate reader.
Results were expressed as the negative logarithm of the IC50 value, pIC50.

[2] = Determination of absorption in cannulated rats; format: in vivo, Sprague Dawley rats; conditions: rat, oral, portal vein
Description: Oral bioavailability (F %), fraction absorbed (Fa %) and fraction escaping hepatic clearance (Fh %) were determined in Sprague Dawley rats from the following two studies:
(1) Pharmacokinetics in rats following an IV dose of test compound: Following IV dosing, plasma samples were typically collected from 0-6 hr. Drug levels were determined using an LC-MS-MS method. The resulting drug levels were used to compute the IV pharmacokinetic parameters: AUC IV and Dose IV.
(2) Rats that have been cannulated in their portal vein (PV) and also in their jugular vein (JV) were dosed orally with test compound. Following oral dosing, plasma samples were typically collected from 0-6 hr from both the portal vein and the jugular vein. Drug levels were determined using an LC-MS-MS method. The resulting drug levels were used to compute the following pharmacokinetic parameters: AUC PO PV, AUC PO JV, and Dose PO.
Using data derived from the above studies, the oral bioavailability F %, and the quantities Fa % and Fh % were calculated from the following formulas: F %=(AUC PO JV/AUC IV)*(Dose IV/Dose PO)*100 Fa %=(AUC PO PV/AUC IV)*(Dose IV/Dose PO)*100 Fh %=AUC PO JV/AUC PO PV
AUC PO JV=Area under the curve following oral dose and plasma collected from the jugular vein
AUC PO PV=Area under the curve following oral dose and plasma collected from the portal vein
AUC IV=Area under the curve following an intravenous dose
Dose IV=Intravenous Dose in mg/kg
Dose PO=Oral Dose in mg/kg

[3] = read-out: JAK 1 (pKi) (converted)

Sequence of JAK1 (P23458 whole entry): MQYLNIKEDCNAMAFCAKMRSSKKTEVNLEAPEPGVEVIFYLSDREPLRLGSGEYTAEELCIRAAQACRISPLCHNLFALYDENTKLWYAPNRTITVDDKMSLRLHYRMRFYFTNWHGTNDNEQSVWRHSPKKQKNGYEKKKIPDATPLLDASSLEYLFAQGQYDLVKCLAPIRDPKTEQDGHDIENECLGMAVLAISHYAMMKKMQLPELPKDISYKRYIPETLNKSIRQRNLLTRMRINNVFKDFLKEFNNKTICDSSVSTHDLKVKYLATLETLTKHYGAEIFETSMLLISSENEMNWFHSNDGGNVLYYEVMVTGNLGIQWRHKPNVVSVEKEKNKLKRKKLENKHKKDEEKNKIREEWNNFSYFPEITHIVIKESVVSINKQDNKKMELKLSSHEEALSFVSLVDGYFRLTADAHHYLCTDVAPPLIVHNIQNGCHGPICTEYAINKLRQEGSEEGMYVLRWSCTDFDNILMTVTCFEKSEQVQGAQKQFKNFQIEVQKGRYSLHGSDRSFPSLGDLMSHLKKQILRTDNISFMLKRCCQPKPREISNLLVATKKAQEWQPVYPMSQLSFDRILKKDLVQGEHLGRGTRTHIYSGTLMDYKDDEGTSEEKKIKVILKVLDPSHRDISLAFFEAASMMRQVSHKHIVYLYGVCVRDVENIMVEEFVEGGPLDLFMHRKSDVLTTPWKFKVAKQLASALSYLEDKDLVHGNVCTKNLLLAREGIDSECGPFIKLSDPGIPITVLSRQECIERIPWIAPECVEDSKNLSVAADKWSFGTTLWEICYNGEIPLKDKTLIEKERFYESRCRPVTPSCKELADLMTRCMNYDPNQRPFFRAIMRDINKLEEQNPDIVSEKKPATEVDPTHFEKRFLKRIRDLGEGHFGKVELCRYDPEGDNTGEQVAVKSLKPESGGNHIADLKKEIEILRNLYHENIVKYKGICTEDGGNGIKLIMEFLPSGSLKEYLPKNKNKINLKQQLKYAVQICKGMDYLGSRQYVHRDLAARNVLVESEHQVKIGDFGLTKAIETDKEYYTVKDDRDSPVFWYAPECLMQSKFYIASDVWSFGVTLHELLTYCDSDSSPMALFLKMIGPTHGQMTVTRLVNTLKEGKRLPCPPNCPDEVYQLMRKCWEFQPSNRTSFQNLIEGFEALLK

SMILES: COc1cc(Nc2cc(CO)[nH]n2)nc(N(C)[C@@H]2C[C@H]3CCC[C@@H](C2)N3S(=O)(=O)c2ccccc2)n1 [Example 1-16, (3-((6-methoxy-2-(methyl((1R,3s,5S)-9-(phenylsulfonyl)-9-azabicyclo[3.3.1]nonan-3-yl)amino)pyrimidin-4-yl)amino)-1H-pyrazol-5-yl)methanol]
- JAK 1 (pKi) (JAK1): B (B represents a pKi value between 9 and 10 (Ki between 1 nM and 0.1 nM))
- JAK 2 (pKi) (JAK2): B (B represents a pKi value between 9 and 10 (Ki between 1 nM and 0.1 nM))
- JAK 3 (pKi) (JAK3): C (C represents a pKi value between 8 and 9 (Ki between 10 nM and 1 nM))
- Tyk 2 (pKi) (Tyk2): B (B represents a pKi value between 9 and 10 (Ki between 1 nM and 0.1 nM))
- HT-29 (pIC50) [1]: B (B represents a pIC50 value between 6.7 and 7.5 (IC50 between 200 nM and 32 nM))

SMILES: COc1cc(Nc2cc(CO)[nH]n2)nc(N(C)[C@@H]2C[C@H]3CC[C@@H](C2)N3CCC#N)n1 [Example 5, 3-((1R,3s,5S)-3-((4-((5-(hydroxymethyl)-1H-pyrazol-3-yl)amino)-6-methoxypyrimidin-2-yl)(methyl)amino)-8-azabicyclo[3.2.1]octan-8-yl)-propanenitrile]
- Ki (JAK1): 0.1 to 1 nM
- Ki (JAK2): 0.1 to 1 nM
- Ki (JAK3): 10 to 31.6 nM
- Ki (Tyk2): 1 to 10 nM
- IC50 [1]: 200 to 1000 nM

SMILES: COc1cc(Nc2cc(CO)[nH]n2)nc(N(C)[C@@H]2C[C@H]3CCC[C@@H](C2)N3S(=O)(=O)c2cccnc2)n1 [Example 1-15, (3-((6-methoxy-2-(methyl((1R,3s,5S)-9-(pyridin-3-ylsulfonyl)-9-azabicyclo[3.3.1]nonan-3-yl)amino)pyrimidin-4-yl)amino)-1H-pyrazol-5-yl)methanol]
- JAK 1 (pKi) (JAK1): B (B represents a pKi value between 9 and 10 (Ki between 1 nM and 0.1 nM))
- JAK 2 (pKi) (JAK2): A (A represents a pKi value≥10 (Ki≤0.1 nM))
- JAK 3 (pKi) (JAK3): C (C represents a pKi value between 8 and 9 (Ki between 10 nM and 1 nM))
- Tyk 2 (pKi) (Tyk2): B (B represents a pKi value between 9 and 10 (Ki between 1 nM and 0.1 nM))
- HT-29 (pIC50) [1]: B (B represents a pIC50 value between 6.7 and 7.5 (IC50 between 200 nM and 32 nM))

SMILES: COc1cc(Nc2cc(CO)[nH]n2)nc(N(C)[C@@H]2C[C@H]3CCC[C@@H](C2)N3S(=O)(=O)N2CCCC2)n1 [Example 1-13, (3-((6-methoxy-2-(methyl((1R,3s,5S)-9-(pyrrolidin-1-ylsulfonyl)-9-azabicyclo[3.3.1]nonan-3-yl)amino)pyrimidin-4-yl)amino)-1H-pyrazol-5-yl)methanol]
- JAK 1 (pKi) (JAK1): A (A represents a pKi value≥10 (Ki≤0.1 nM))
- JAK 2 (pKi) (JAK2): A (A represents a pKi value≥10 (Ki≤0.1 nM))
- JAK 3 (pKi) (JAK3): B (B represents a pKi value between 9 and 10 (Ki between 1 nM and 0.1 nM))
- Tyk 2 (pKi) (Tyk2): B (B represents a pKi value between 9 and 10 (Ki between 1 nM and 0.1 nM))
- HT-29 (pIC50) [1]: A (A represents a pIC50 value≥7.5 (IC50≤32 nM))

SMILES: COc1cc(Nc2cc(CO)[nH]n2)nc(N(C)[C@@H]2C[C@H]3CCC[C@@H](C2)N3C(=O)OCC(C)C)n1 [Example 8, Isobutyl (1R,3s,5S)-3-((4-((5-(hydroxymethyl)-1H-pyrazol-3-yl)amino)-6-methoxypyrimidin-2-yl)(methyl)amino)-9-azabicyclo[3.3.1]nonane-9-carboxylate]
- Ki (JAK1; [3]): 0.1 to 1 nM
- Ki (JAK2): 0.1 to 1 nM
- Ki (JAK3): 1 to 10 nM
- Ki (Tyk2): 0.1 to 1 nM
- IC50 [1]: 31.6 to 200 nM

SMILES: COc1cc(Nc2cc(CO)[nH]n2)nc(N(C)[C@@H]2C[C@H]3CCC[C@@H](C2)N3Cc2cncc(C#N)c2)n1 [Example 7, 5-(((1R,3s,5S)-3-((4-((5-(hydroxymethyl)-1H-pyrazol-3-yl)amino)-6-methoxypyrimidin-2-yl)(methyl)amino)-9-azabicyclo[3.3.1]nonan-9-yl)methyl)nicotinonitrile]
- JAK 1 (pKi) (JAK1): A (A represents a pKi value≥10 (Ki≤0.1 nM))
- JAK 2 (pKi) (JAK2): A (A represents a pKi value≥10 (Ki≤0.1 nM))
- Ki (JAK3): 0.1 to 1 nM
- Ki (Tyk2): 0.1 to 1 nM
- IC50 [1]: 31.6 to 200 nM

SMILES: COc1cc(Nc2cc(CO)[nH]n2)nc(N(C)[C@@H]2C[C@H]3CCC[C@@H](C2)N3S(=O)(=O)C2CC2)n1 [Example 1-14, (3-((2-(((1R,3s,5S)-9-(cyclopropylsulfonyl)-9-azabicyclo[3.3.1]nonan-3-yl)(methyl)amino)-6-methoxypyrimidin-4-yl)amino)-1H-pyrazol-5-yl)methanol]
- JAK 1 (pKi) (JAK1): B (B represents a pKi value between 9 and 10 (Ki between 1 nM and 0.1 nM))
- JAK 2 (pKi) (JAK2): A (A represents a pKi value≥10 (Ki≤0.1 nM))
- JAK 3 (pKi) (JAK3): C (C represents a pKi value between 8 and 9 (Ki between 10 nM and 1 nM))
- Tyk 2 (pKi) (Tyk2): B (B represents a pKi value between 9 and 10 (Ki between 1 nM and 0.1 nM))
- HT-29 (pIC50) [1]: A (A represents a pIC50 value≥7.5 (IC50≤32 nM))

SMILES: COc1cc(Nc2cc(CO)[nH]n2)nc(N(C)[C@@H]2C[C@H]3CCC[C@@H](C2)N3S(=O)(=O)N2CCC2)n1 [Example 1-17, (3-((2-(((1R,3s,5S)-9-(azetidin-1-ylsulfonyl)-9-azabicyclo[3.3.1]nonan-3-yl)(methyl)amino)-6-methoxypyrimidin-4-yl)amino)-1H-pyrazol-5-yl)methanol]
- JAK 1 (pKi) (JAK1): B (B represents a pKi value between 9 and 10 (Ki between 1 nM and 0.1 nM))
- JAK 2 (pKi) (JAK2): A (A represents a pKi value≥10 (Ki≤0.1 nM))
- JAK 3 (pKi) (JAK3): C (C represents a pKi value between 8 and 9 (Ki between 10 nM and 1 nM))
- Tyk 2 (pKi) (Tyk2): B (B represents a pKi value between 9 and 10 (Ki between 1 nM and 0.1 nM))
- HT-29 (pIC50) [1]: A (A represents a pIC50 value≥7.5 (IC50≤32 nM))

SMILES: COc1cc(Nc2cc(CO)[nH]n2)nc(N(C)[C@@H]2C[C@H]3CCC[C@@H](C2)N3S(C)(=O)=O)n1 [Example 3, (3-((6-methoxy-2-(methyl((1R,3s,5S)-9-(methylsulfonyl)-9-azabicyclo[3.3.1]nonan-3-yl)amino)pyrimidin-4-yl)amino)-1H-pyrazol-5-yl)methanol]
- Ki (JAK1; [3]): 0.1 to 1 nM
- JAK 2 (pKi) (JAK2): A (A represents a pKi value≥10 (Ki≤0.1 nM))
- Ki (JAK3): 1 to 10 nM
- Ki (Tyk2): 0.1 to 1 nM
- IC50 [1]: 31.6 to 200 nM
- absorption at the portal vein (Fa %) [2]: greater than 40%
